In patent US20120329787A1, “FUNGICIDAL PYRANONES AND OXAZINONES” (E.I. DU PONT DE NEMOURS AND COMPANY, priority 2011, published 2012):
Marks after values point to notes of the source that are not given here.

Columns and labels:
Assay type in all cases: in vivo
Rhizoctonia solani = assay: Test D: turf brown patch, spray on creeping bent grass seedlings the day before inoculation; conditions: 200 ppm test suspension
Text: General protocol for preparing test suspensions for Tests A-I: the test compounds were first dissolved in acetone in an amount equal to 3% of the final volume and then suspended at the desired concentration (in ppm) in acetone and purified water (50/50 mix by volume) containing 250 ppm of the surfactant Trem® 014 (polyhydric alcohol esters). The resulting test suspensions were then used in Tests A-I. Spraying a 200 ppm test suspension to the point of run-off on the test plants was the equivalent of a rate of 500 g/ha. […] (An asterisk “*” next to the rating value indicates a 40 ppm test suspension was used.) The test suspension was sprayed to the point of run-off on creeping bent grass (Agrostis sp.) seedlings. The following day, the seedlings were inoculated with a bran and mycelial slurry of Rhizoctonia solani (the causal agent of turf brown patch) and incubated in a saturated atmosphere at 27° C. for 48 h, and then moved to a growth chamber at 27° C. for 3 days, after which time disease ratings were made. […] A dash (-) indicates no test results. All results are for 200 ppm except where followed by an asterisk “*”, which indicates a 40 ppm.

Botrytis cinerea = assay: Test A: tomato Botrytis, spray on tomato seedlings the day before inoculation; conditions: 200 ppm test suspension
Summary of the method: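 Visual disease rating after Botrytis cinerea spore inoculation one day post-treatment, incubation 48 h at 20 °C in saturated atmosphere then 3 days at 24 °C. Preventive foliar spray to run-off on tomato seedlings at 200 ppm (500 g/ha equivalent) or 40 ppm, acetone/water with surfactant.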

Phytophthora infestans = conditions: 200 ppm test suspension; tomato seedlings
Septoria nodorum = assay: Test E: Septoria glume blotch, spray on wheat seedlings the day before inoculation; conditions: 200 ppm test suspension
Summary of the method: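 Wheat seedlings received a run-off spray of test suspension, then were inoculated with Septoria nodorum one day later. Suspensions: 200 ppm (≈500 g/ha) or, where asterisked, 40 ppm, in 50/50 acetone/water containing 250 ppm Trem 014.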

[1] = tested on: Puccinia recondita f. sp. tritici; assay: Test H: wheat leaf rust, spray on wheat seedlings the day before inoculation; conditions: 200 ppm test suspension, sprayed before inoculation
Summary of the method: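 Preventive test: one day after run-off spraying of seedlings at 200 ppm (some at 40 ppm), Puccinia recondita spores were applied. Disease was scored visually after 24 h saturated humidity plus 6 days, both at 20 °C.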

Septoria tritici = assay: Test F: wheat leaf blotch, spray on wheat seedlings the day before inoculation; conditions: 200 ppm test suspension
Summary of the method: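 Protectant test: Septoria tritici spores inoculated one day after run-off spraying of test suspension (200 ppm, equal to 500 g/ha, or 40 ppm; acetone/water, 250 ppm Trem 014). Plants kept 48 h at 24° C in saturated air and 19 further days at 20° C, then disease scored visually.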

[2] = tested on: Erysiphe graminis f. sp. tritici; assay: Test I: wheat powdery mildew, spray on wheat seedlings the day before inoculation; conditions: 200 ppm test suspension
Summary of the method: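 Protectant test: spore-dust inoculation one day after run-off spraying, then 7 days in a 20° C growth chamber before visual scoring. Suspensions were 200 ppm, or 40 ppm where flagged, in 50/50 acetone-water containing 250 ppm Trem 014.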

Alternaria solani = assay: Test B: tomato early blight, spray on tomato seedlings the day before inoculation
Summary of the method: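 Visual blight ratings were made after 48 h saturated incubation at 27 °C plus 5 days at 20 °C, following A. solani spore inoculation one day after run-off spraying at 200 ppm (or 40 ppm where marked).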

Compound	Test D rating (100 = 100% disease control, 0 = no disease control) (Rhizoctonia solani)	Test A rating (100 = 100% disease control, 0 = no disease control) (Botrytis cinerea)	Test C rating (100 = 100% disease control, 0 = no disease control) (Phytophthora infestans)	Test E rating (100 = 100% disease control, 0 = no disease control) (Septoria nodorum)	Test H rating (100 = 100% disease control, 0 = no disease control) [1]	Test F rating (100 = 100% disease control, 0 = no disease control) (Septoria tritici)	Test I rating (100 = 100% disease control, 0 = no disease control) [2]	Test B rating (100 = 100% disease control, 0 = no disease control) (Alternaria solani; 200 ppm test suspension)	Test B rating (100 = 100% disease control, 0 = no disease control) (Alternaria solani; 40 ppm test suspension (asterisk))
Cc1noc(=O)c(-c2cccc(F)c2)c1-c1ccccc1 [Compound 1]	0%	0%	0%	0%	0%	37%	0%	–	–
Cc1noc(=O)c(-c2ccc(Cl)cc2)c1-c1c(F)cccc1F [Compound 2]	0%	47%	17%	0%	0%	97%	92%	–	–
Cc1noc(=O)c(-c2cccc(F)c2)c1-c1c(F)cccc1F [Compound 4]	0%	0%	8%	0%	0%	0%	0%	–	–
Cc1noc(=O)c(-c2c(F)cc(F)cc2F)c1-c1cccc(F)c1 [Compound 5]	16%	0%	0%	0%	0%	–	20%	54%	–
Cc1noc(=O)c(-c2c(F)ccc(F)c2F)c1-c1ccc(Cl)cc1 [Compound 6]	0%	99%	0%	0%	41%	–	96%	99%	–
Cc1noc(=O)c(-c2c(F)cccc2F)c1-c1ccc(Cl)cc1 [Compound 7]	75%	100%	0%	0%	99%	–	100%	100%	–
Cc1noc(=O)c(-c2c(F)cccc2Cl)c1-c1ccc(Cl)cc1 [Compound 8]	52%	100%	0%	0%	98%	–	99%	99%	–
Cc1ccc(-c2c(C)noc(=O)c2-c2c(F)cc(F)cc2F)cc1 [Compound 9]	99%	90%	0%	0%	96%	–	96%	46%	–
Cc1noc(=O)c(-c2c(F)cc(F)cc2F)c1-c1ccc(Br)cc1 [Compound 10]	90%	98%	0%	0%	95%	–	99%	100%	–
Cc1noc(=O)c(-c2c(F)cc(F)cc2F)c1-c1ccc(F)cc1 [Compound 11]	26%	100%	0%	64%	98%	–	100%	99%	–
Cc1noc(=O)c(-c2c(F)cc(F)cc2F)c1-c1ccc(C(F)(F)F)cc1 [Compound 12]	0%	0%	0%	0%	0%	–	98%	–	99* %
Cc1noc(=O)c(-c2ccc(F)cc2F)c1-c1ccc(Cl)cc1 [Compound 13]	0%	0%	0%	0%	91%	–	99%	9%	–
Cc1noc(=O)c(-c2ccc(F)cc2Cl)c1-c1ccc(Br)cc1 [Compound 14]	0%	0%	0%	0%	0%	–	0%	5%	–
Cc1noc(=O)c(-c2c(F)cccc2F)c1-c1ccc(Br)cc1 [Compound 15]	0%	0%	0%	0%	91%	–	98%	96%	–
